Measured values as given in ChEMBL document CHEMBL4837228, “Generation and Biological Evaluation of Degraded Derivatives of the Three E/Z-Isomers of Yaku'amide B” (2021).

System: MCF7
Experiment: Growth inhibition of human MCF7 cells for 48 hrs by sulforhodamine B assay
Assay type: functional

## CC/C(C)=C(\NC(=O)[C@@H](NC(=O)[C@H](NC(=O)[C@H](NC(=O)[C@H](NC(=O)/C(NC(=O)[C@H](C)NC(=O)/C(NC(=O)[C@@H](NC(=O)C(C)(C)C(=O)[C@@H](C)CC(C)C)[C@](C)(O)CC)=C(/C)CC)=C(/C)CC)C(C)C)[C@@H](C)CC)C(C)(C)O)C(C)(C)O)C(=O)N[C@H](C)C(=O)N[C@@H](C(=O)N[C@H](C(=O)NC(C(=O)N[C@H](CN(C)C)C(C)C)=C(C)C)C(C)C)C(C)C
  GI50: 25.4 nM

## CC/C(C)=C(\NC(=O)[C@H](C)NC(=O)/C(NC(=O)[C@@H](NC(=O)C(C)(C)C(=O)[C@@H](C)CC(C)C)[C@](C)(O)CC)=C(\C)CC)C(=O)N[C@@H](C(=O)N[C@@H](C(=O)N[C@@H](C(=O)N[C@H](C(=O)N/C(C(=O)N[C@H](C)C(=O)N[C@@H](C(=O)N[C@H](C(=O)NC(C(=O)N[C@H](CN(C)C)C(C)C)=C(C)C)C(C)C)C(C)C)=C(\C)CC)C(C)(C)O)C(C)(C)O)[C@@H](C)CC)C(C)C
  GI50: 57.4 nM

## CC/C(C)=C(\NC(=O)[C@H](C)NC(=O)/C(NC(=O)CNC(=O)C(C)(C)C(=O)[C@@H](C)CC(C)C)=C(/C)CC)C(=O)N[C@@H](C(=O)N[C@@H](C(=O)N[C@@H](C(=O)N[C@H](C(=O)N/C(C(=O)N[C@H](C)C(=O)N[C@@H](C(=O)N[C@H](C(=O)NC(C(=O)N[C@H](CN(C)C)C(C)C)=C(C)C)C(C)C)C(C)C)=C(/C)CC)C(C)(C)O)C(C)(C)O)[C@@H](C)CC)C(C)C
  GI50: 47.7 nM

## CC/C(C)=C(\NC(=O)CNC(=O)C(C)(C)C(=O)[C@@H](C)CC(C)C)C(=O)N[C@@H](C)C(=O)N/C(C(=O)N[C@@H](C(=O)N[C@@H](C(=O)N[C@@H](C(=O)NCC(=O)N/C(C(=O)N[C@H](C)C(=O)N[C@@H](C(=O)N[C@H](C(=O)NC(C(=O)N[C@H](CN(C)C)C(C)C)=C(C)C)C(C)C)C(C)C)=C(\C)CC)C(C)(C)O)[C@@H](C)CC)C(C)C)=C(/C)CC
  GI50: 304 nM

## CC/C(C)=C(\NC(=O)[C@@H](NC(=O)[C@H](NC(=O)[C@H](NC(=O)[C@H](NC(=O)/C(NC(=O)[C@H](C)NC(=O)/C(NC(=O)CNC(=O)C(C)(C)C(=O)[C@@H](C)CC(C)C)=C(/C)CC)=C(/C)CC)C(C)C)[C@@H](C)CC)C(C)(C)O)C(C)(C)O)C(=O)N[C@H](C)C(=O)N[C@@H](C(=O)N[C@H](C(=O)NC(C(=O)N[C@H](CN(C)C)C(C)C)=C(C)C)C(C)C)C(C)C
  GI50: 28.2 nM

## CC/C(C)=C(\NC(=O)[C@@H](NC(=O)[C@H](NC(=O)[C@H](NC(=O)[C@H](NC(=O)/C(NC(=O)[C@H](C)NC(=O)/C(NC(=O)[C@@H](NC(=O)C(C)(C)C(=O)[C@@H](C)CC(C)C)[C@](C)(O)CC)=C(\C)CC)=C(/C)CC)C(C)C)[C@@H](C)CC)C(C)(C)O)C(C)(C)O)C(=O)N[C@H](C)C(=O)N[C@@H](C(=O)N[C@H](C(=O)NC(C(=O)N[C@H](CN(C)C)C(C)C)=C(C)C)C(C)C)C(C)C
  GI50: 18.2 nM

## CC/C(C)=C(\NC(=O)[C@H](C)NC(=O)/C(NC(=O)[C@@H](NC(=O)C(C)(C)C(=O)[C@@H](C)CC(C)C)[C@](C)(O)CC)=C(/C)CC)C(=O)N[C@@H](C(=O)N[C@@H](C(=O)N[C@@H](C(=O)N[C@H](C(=O)N/C(C(=O)N[C@H](C)C(=O)N[C@@H](C(=O)N[C@H](C(=O)NC(C(=O)N[C@H](CN(C)C)C(C)C)=C(C)C)C(C)C)C(C)C)=C(/C)CC)C(C)(C)O)C(C)(C)O)[C@@H](C)CC)C(C)C
  GI50: 24.6 nM

## CC/C(C)=C(\NC(=O)CNC(=O)C(C)(C)C(=O)[C@@H](C)CC(C)C)C(=O)N[C@@H](C)C(=O)N/C(C(=O)N[C@@H](C(=O)N[C@@H](C(=O)N[C@@H](C(=O)N[C@H](C(=O)N/C(C(=O)N[C@H](C)C(=O)N[C@@H](C(=O)N[C@H](C(=O)NC(C(=O)N[C@H](CN(C)C)C(C)C)=C(C)C)C(C)C)C(C)C)=C(\C)CC)C(C)(C)O)C(C)(C)O)[C@@H](C)CC)C(C)C)=C(/C)CC
  GI50: 26.8 nM
